US20200128830A1, “FUSED BICYCLIC HETEROCYCLE DERIVATIVES AS PESTICIDES” (Bayer Aktiengesellschaft, priority 2017, published 2020)

Assays:
Assay type in all cases: in vivo
Myzus persicae = Myzus persicae oral test; settings: 120 h, application rate 4 ppm, mixed population of green peach aphids, after 5 days, read-out: efficacy
Protocol: Myzus persicae—Oral Test [table] To produce a suitable active compound formulation, 1 part by weight of active compound is dissolved with the stated parts by weight of solvent and made up to the desired concentration with water. 50 μl of the active compound formulation are transferred into microtitre plates and made up to a final volume of 200 μl with 150 μl of IPL41 insect medium (33%+15% sugar). Subsequently, the plates are sealed with parafilm, which a mixed population of green peach aphids (Myzus persicae) within a second microtitre plate is able to puncture and imbibe the solution. After 5 days, the efficacy in % is determined. 100% means that all the aphids have been killed; 0% means that no aphids have been killed.

Lucilia cuprina = Lucilia cuprina test; settings: application rate 100 ppm; L1 larvae on minced horsemeat; after 2 days
Protocol: Lucilia cuprina Test Solvent: Dimethyl Sulfoxide To produce a suitable active compound formulation, 10 mg of active compound are mixed with 0.5 ml of dimethyl sulfoxide, and the concentrate is diluted with water to the desired concentration. About 20 L1 larvae of the Australian sheep blowfly (Lucilia cuprina) are transferred into a test vessel containing minced horsemeat and the active compound preparation of the desired concentration. After 2 days, the kill in % is determined. 100% means that all the larvae have been killed; 0% means that no larvae have been killed.

Phaedon cochleariae = Phaedon cochleariae spray test; settings: foliar, 168 h, application rate 100 g/ha, larvae on Chinese cabbage leaf discs, after 7 days, read-out: efficacy
Protocol: Phaedon cochleariae—Spray Test
To produce a suitable active compound formulation, 1 part by weight of active compound is dissolved with the specified parts by weight of solvent and made up to the desired concentration with water containing an emulsifier concentration of 1000 ppm. To produce further test concentrations, the formulation is diluted with emulsifier-containing water.
Discs of Chinese cabbage leaves (Brassica pekinensis) are sprayed with an active compound formulation of the desired concentration and, after drying, populated with larvae of the mustard beetle (Phaedon cochleariae).
After 7 days, the efficacy in % is determined. 100% means that all the beetle larvae have been killed; 0% means that no beetle larvae have been killed.

Ctenocephalides felis [1] = test: Ctenocephalides felis in vitro contact test with adult cat fleas; settings: application rate 5 μg/cm^2 (=500 g of ai/ha); adult cat fleas in coated glass tube; after 48 h; dead or moribund
Protocol: Ctenocephalides felis—In Vitro Contact Tests with Adult Cat Fleas For the coating of the test tubes, 9 mg of active compound are first dissolved in 1 ml of acetone p.a. and then diluted to the desired concentration with acetone p.a. 250 μl of the solution are distributed homogeneously on the inner walls and the base of a 25 ml glass tube by turning and rocking on an orbital shaker (rocking rotation at 30 rpm for 2 h). With 900 ppm of active compound solution and internal surface area 44.7 cm^2, given homogeneous distribution, an area-based dose of 5 μg/cm^2 is achieved. After the solvent has evaporated off, the tubes are populated with 5-10 adult cat fleas (Ctenocephalides felis), sealed with a perforated plastic lid and incubated in a horizontal position at room temperature and ambient humidity. After 48 h, efficacy is determined. To this end, the tubes are stood upright and the fleas are knocked to the base of the tube. Fleas which remain motionless at the base or move in an uncoordinated manner are considered to be dead or moribund. […] 100% efficacy means that all the fleas were dead or moribund. 0% efficacy means that no fleas were harmed.

Musca domestica = Musca domestica test; settings: application rate 100 ppm; adult houseflies, sponge with sugar solution; after 2 days
Protocol: Musca domestica Test Solvent: Dimethyl Sulfoxide To produce a suitable active compound formulation, 10 mg of active compound are mixed with 0.5 ml of dimethyl sulfoxide, and the concentrate is diluted with water to the desired concentration. Vessels containing a sponge treated with sugar solution and the desired concentration of active compound formulation are populated with 10 adult houseflies (Musca domestica). After 2 days, the kill in % is determined. 100% means that all of the flies have been killed; 0% means that none of the flies have been killed.

Spodoptera frugiperda = Spodoptera frugiperda spray test; settings: foliar, 168 h, application rate 100 g/ha, caterpillars on maize leaf discs, after 7 days, read-out: efficacy
Protocol: Spodoptera frugiperda—Spray Test [table] To produce a suitable active compound formulation, 1 part by weight of active compound is dissolved with the specified parts by weight of solvent and made up to the desired concentration with water containing an emulsifier concentration of 1000 ppm. To produce further test concentrations, the formulation is diluted with emulsifier-containing water. Leaf discs of maize (Zea mays) are sprayed with an active compound formulation of the desired concentration and, after drying, populated with caterpillars of the fall armyworm (Spodoptera frugiperda). After 7 days, the efficacy in % is determined. 100% means that all the caterpillars have been killed; 0% means that no caterpillar has been killed.

Ctenocephalides felis [2] = test: Ctenocephalides felis oral test; settings: application rate 100 ppm in citrated cattle blood; unfed adult cat fleas; after 2 days
Protocol: Ctenocephalides felis—Oral Test Solvent: Dimethyl Sulfoxide To produce a suitable active compound formulation, 10 mg of active compound are mixed with 0.5 ml of dimethyl sulfoxide. Dilution with citrated cattle blood gives the desired concentration. About 20 unfed adult cat fleas (Ctenocephalides felis) are placed into a chamber which is closed at the top and bottom with gauze. A metal cylinder whose bottom end is closed with parafilm is placed onto the chamber. The cylinder contains the blood/active compound formulation, which can be imbibed by the fleas through the parafilm membrane. After 2 days, the kill in % is determined. 100% means that all of the fleas have been killed; 0% means that none of the fleas have been killed.

CCS(=O)(=O)c1c(-c2nc3cc(C(F)(F)F)ncc3n2C)sc2nc(C(F)(F)F)sc12 [I-10]
pest or weed control at 4 ppm (Myzus persicae): 90%
efficacy (kill in %) (Lucilia cuprina): 100%
pest or weed control at 100 g/ha (Phaedon cochleariae): 100%
efficacy (Ctenocephalides felis [1]): 100%
efficacy (kill in %) (Musca domestica): 80%
pest or weed control at 100 g/ha (Spodoptera frugiperda): 100%
efficacy (kill in %) (Ctenocephalides felis [2]): 80%
